# Measured values: PubChem BioAssay AID1996
# Details: buffer; pH 7.4; 200.0 µM
row,SMILES,solubility kinetic [mg/mL]
1,CCOc1ccc(S(=O)(=O)n2cnc(C)c2)cc1,0.0385
2,Cc1cc(C(=O)Nc2ccc(Cl)cc2)c2ccccc2n1,< 0.0003
3,CCn1cc(CCC(=O)NC2CCCC2)c2ccccc21,0.0404
4,Cc1ccc(N=C2NC(=O)/C(=C/c3cccnc3)S2)cc1C,< 0.0002
5,Cl.N=c1ccn(Cc2ccc(F)cc2)cc1,> 0.0358
6,Cc1cccc(NC(=O)Nc2ccccn2)c1C,0.0012
7,Cc1sc(NC(=O)c2c(F)cccc2F)nc1-c1ccccc1,0.0006
8,O=C(Cc1cccs1)Nc1ccc(F)c(F)c1,0.0209
9,CN(C)CCNC(=O)COc1cccc2c1OC(C)(C)C2,> 0.0439
10,Cc1ccc(CC(=O)OCC(=O)c2ccc[nH]2)cc1C,0.0109
11,CCOc1cccc(C(=O)N2CCCN(C)CC2)c1,0.0356
12,Cc1[nH]c2ccc(C(=O)N3CCN(Cc4ccccc4)CC3)cc2c1C,> 0.0521
13,O=S(=O)(Nc1ccc2ccccc2n1)c1ccccc1,> 0.0426
14,CC(C)Cn1c(N)c(C(=O)COC(=O)c2ccccc2C(=O)c2ccccc2)c(=O)n(C)c1=O,0.0035
15,Cn1c(N)c(C(=O)COC(=O)c2ccc(F)cc2Cl)c(=O)n(C)c1=O,0.0045
16,CCC(=O)NC1OC(CO)C(O)C(O)C1O (centres undefined),> 0.0353
17,CC(C)CC1(C)NC(=O)N(CC(=O)Nc2ccccc2Br)C1=O (centres undefined),> 0.0573
18,Cn1cnc(S(=O)(=O)Nc2ccc(OC(F)F)cc2)c1,> 0.0455
19,CC(=O)c1ccc(NC(=O)CN2c3cccc4cccc(c34)S2(=O)=O)cc1,0.0072
20,Cc1nnc(SCC(=O)NCC2CCCO2)n1Cc1ccccc1 (centres undefined),> 0.052
21,Cc1cc2c(SCC(=O)NC3CCCC3)ncnc2s1,0.0302
22,COc1ccc(CN2CCN(C(=O)CC(C)C)CC2)cc1,0.0368
23,O=C(O)CCC(NC(=S)Nc1ccccc1)C(=O)O (centres undefined),> 0.0423
24,Cc1ccsc1/C=N/NC(=O)C1CC(=O)N(c2ccc(F)cc2)C1 (centres undefined),> 0.0518

row,SMILES,solubility kinetic [mg/mL]
1,Cc1cc(OC(=O)c2ccc(OC(C)C)cc2)c([N+](=O)[O-])c(=O)[nH]1,> 0.0498
2,Cn1c(=O)c2c(ncn2CC(O)CO)n(C)c1=O (centres undefined),> 0.0381
3,CC(=O)c1ccc(NC(=O)C(C)NCc2ccc(Cl)cc2)cc1 (centres undefined),0.0429
4,O=C(NC(=S)Nc1ccc(Cl)cc1Cl)C1CC1,0.0008
5,O=S1(=O)CCC(NC(=S)Nc2ccc3ccccc3c2)C1 (centres undefined),0.0153
6,Cc1nc(Nc2ccc3c(c2)OCCO3)c2c(C)c(C)sc2n1,0.0036
7,CC1CCCC(NC(=O)CN2C(=O)COc3ccccc32)C1C (centres undefined),0.0064
8,Cc1cc(C)c(C#N)c(N2CCN(c3ccc(F)cc3)CC2)n1,< 0.0002
9,Cc1ccc(CNC(=O)c2ccc(N(C)C)cc2)cc1,0.0032
10,CS(=O)(=O)Nc1ccc(-c2cn3cccnc3n2)cc1,> 0.0432
11,O=[N+]([O-])c1ccc2nc(NS(=O)(=O)c3ccc(F)cc3)sc2c1,0.0497
12,CC1CC2c3cccc(C(=O)O)c3C(=O)N2c2ccc(Cl)cc21 (centres undefined),> 0.0492
13,Cc1cc(C2(O)C(=O)Nc3ccccc32)ccc1F (centres undefined),> 0.0386
14,CC(C)C(CCNC1CCN(C)CC1)c1ccc(Cl)cc1 (centres undefined),0.0335
15,O=C1NC2(CCCCC2)C(=O)N1Cc1cccc(C(F)(F)F)c1,0.0084
16,O=C(COC(=O)c1ccc(O)cc1O)Nc1ccc(Cl)cn1,0.0465
17,CC(=O)c1ccc(C(=O)N2CCCC(Nc3ccccc3)C2)s1 (centres undefined),0.0412
18,COc1cccc(NC(=O)NC2CCCCCCC2)c1,0.0052
19,O=C(Nc1nc2ccccc2[nH]1)c1ccc(OC(F)F)cc1,0.0024
20,Cc1nc(N2CCCCC2)c2c(-c3cccs3)csc2n1,0.0023
21,COC(=O)c1cc(OC)c(OC)cc1N1C(=O)CCCC1=O,> 0.0461
22,CSc1c(CN2CCN(C)CC2)c2ccccc2n1C.Cl,0.0529
23,COc1ccc(CNC(=O)COC(=O)/C=C/c2cccc(Cl)c2)cc1,0.0033
24,Nc1ccc(-c2c3ccccc3nc3ccccc23)cc1,< 0.0003

row,SMILES,solubility kinetic [mg/mL]
1,Cc1nn(-c2cccc(C(=O)O)c2)c(C)c1[N+](=O)[O-],> 0.0392
2,O=C(NCCN1CCOCC1)c1cc(-c2ccc(F)cc2)nc2ccccc12,0.0238
3,COc1ccc(CCC(=O)Nc2ccc3c(c2)OCO3)cc1OC,0.0355
4,Cc1ccc(NCC(=O)Nc2ccc(Br)cc2)cc1C,0.0037
5,Cc1ccc(C)c(N2CCN(CCN3CCCCC3)CC2)c1.Cl,0.0365
6,N/C(=N\c1nc2ccccc2o1)NC(=O)c1cccc(Cl)c1,< 0.0002
7,CCc1ccc(C(C)NC(=S)NCc2ccc(F)cc2)cc1 (centres undefined),0.001
8,CCc1nc(SCC(=O)O)c(C#N)c2c1CCCC2,> 0.0415
9,CC(=O)c1ccc(NC(=O)C(C)Sc2nnc(-c3ccncc3)n2C2CC2)cc1 (centres undefined),> 0.0611
10,Cc1ccc(C(=O)N2CCC(C(=O)NC3CCCCCC3)CC2)cc1,0.0481
11,Cc1cnc(NC(=O)[C@H](C)N2C(=O)C3CCCCC3C2=O)s1 (some centres undefined),> 0.0482
12,COc1ccc(C(=O)N=c2sc3ccccc3n2C)cc1,< 0.0003
13,O=C(OCC(=O)N1CCCCCC1)c1cccc(Cl)c1,> 0.0444
14,Cc1nn(C)cc1S(=O)(=O)NCc1ccc2c(c1)OCO2,> 0.0464
15,CC1CCCN(C(=O)Cc2cccc3ccccc23)C1 (centres undefined),0.0383
16,O=C(c1cc(-c2ccc(F)cc2)on1)N1CCOCC1,> 0.0414
17,O=C(NC1CCCc2ccccc21)c1ccc(F)cc1F (centres undefined),0.0109
18,COCCn1c(=S)[nH]c2ccccc21,> 0.0312
19,CCn1c(=O)c(C(=O)Nc2ncccc2O)c(O)c2ccccc21,0.0009
20,CC1(c2ccc(Cl)cc2)NC(=O)N(CC(=O)N2CCc3ccccc32)C1=O (centres undefined),0.0015
21,NC(=O)NC(=O)COC(=O)CC12CC3CC(CC(C3)C1)C2,0.0292
22,Cc1ccc(S(=O)(=O)NCC(=O)OCC(=O)N2CC(C)OC(C)C2)cc1 (centres undefined),> 0.0577
23,CCOc1ccc(NC(=O)CN2C(=O)NC3(CCCCCC3)C2=O)cc1,> 0.0539
24,Cc1ccccc1OCCN(C#N)c1nc(N(C)C)nc(N(C)C)n1,0.0004

row,SMILES,solubility kinetic [mg/mL]
1,CCOc1ccccc1NC(=O)C(=O)CC(=O)c1ccc(OC)cc1,0.0061
2,CN1C(=O)CN=C(c2ccccc2Cl)c2cc(Br)ccc21,0.0519
3,O=C(CC(=O)c1ccccc1)Nc1cc([N+](=O)[O-])ccc1Cl,0.0006
4,Cn1ccnc1C(OC(=O)c1ccc(Cl)cc1)C(F)(F)F (centres undefined),> 0.0478
5,CCC(Oc1ccccc1C)C(=O)N1CCCN(C)CC1 (centres undefined),> 0.0436
6,COc1ccc(NC(=O)Nc2cccc3ccccc23)cc1OC,0.0004
7,CC(C)COC(=O)N1C[C@H](O)C[C@H]1C(=O)Nc1ccc(Cl)cc1,> 0.0511
8,CCC(OC(=O)c1nsc(Cl)c1Cl)C(=O)NC(C)(C)CC (centres undefined),> 0.053
9,O=C(NCCc1cccs1)C(c1ccccc1)c1ccccc1,0.0015
10,COCCNC(=O)/C(C#N)=C/c1ccccc1Br,> 0.0464
11,Cc1cc(-n2c(C)cc(C(=O)COc3ccc(Cl)cc3C(N)=O)c2C)no1,0.0027
12,CC(C)(CO)Nc1nc(Cl)nc(NC2CCCCC2)n1,0.0365
13,Cc1ccc(S(=O)(=O)N2CCCC(C(=O)NC3CCCC3)C2)cc1 (centres undefined),0.0005
14,CC(NC(=O)c1ccccc1)C(=O)N/N=C/c1ccccc1 (centres undefined),> 0.0443
15,Cc1ccc(C(=O)N/N=C\c2cccnc2)s1,> 0.0368
16,O=C(CSc1ncnc2sc3c(c12)CCCC3)NC1CCS(=O)(=O)C1 (centres undefined),0.0186
17,Nc1cccc(Oc2ccc3c(c2)C(=O)N(CC2CCCO2)C3=O)c1 (centres undefined),0.0414
18,O=C(c1ccc(-c2cccc(Cl)c2Cl)o1)N1CCOCC1,0.0471
19,O=C(NCCOCc1ccccc1)C(c1ccccc1)c1ccccc1,0.0233
20,Cl.OC(c1ccc(Cl)cc1)C(CN1CCOCC1)c1ccccc1 (centres undefined),> 0.0552
21,Cc1cccc(C)c1NC(=O)c1cnccn1,0.0248
22,CSc1nc2sc3c(c2c(=O)[nH]1)CC(C)(C)OC3,0.0139
23,O=C(O)C1CCN(C(=O)CCc2ccccc2)CC1,> 0.0392
24,COc1ccc(S(=O)(=O)N2CCOCC2)cc1NC(=O)COC(=O)c1[nH]c(C)c(C(C)=O)c1C,0.0088

row,SMILES,solubility kinetic [mg/mL]
1,CCOC(=O)c1cc(S(=O)(=O)N2CCC(C)CC2)cn1C,0.0052
2,NC(=O)C1CCCN(C(=O)CCC(=O)c2cccs2)C1 (centres undefined),> 0.0442
3,COc1cccc(C(=O)N(Cc2cccs2)C2CCS(=O)(=O)C2)c1 (centres undefined),> 0.0548
4,CS(=O)(=O)NCCCNc1ccc(C(F)(F)F)cc1[N+](=O)[O-],> 0.0512
5,COc1ccnc2c1c(=O)n(Cc1ccc(Cl)cc1)c(=O)n2C,0.0093
6,NS(=O)(=O)c1ccc(CNC(=O)c2ccncc2)cc1,> 0.0437
7,CCC(C)Nc1nc2c(c(=O)[nH]c(=O)n2C)n1CCOc1ccccc1 (centres undefined),0.0198
8,Cc1[nH]c(=O)[nH]c(=O)c1Sc1ccccc1[N+](=O)[O-],0.0205
9,COc1cccc(C(=O)Nc2cccc3cccnc23)c1OC,< 0.0003
10,Cl.OC1(CNCc2ccccc2)C2CC3CC(C2)CC1C3 (centres undefined),> 0.0462
11,Clc1ccc(Cl)c(-c2nc(-c3ccncc3)no2)c1,< 0.0002
12,Cc1ccc2nc(SCC(=O)NCc3ccc(F)cc3)[nH]c2c1,0.0224
13,COc1ccc(CC(=O)NC(=S)Nc2cccc(CO)c2)cc1,0.0493
14,CCN1CCN(C(=O)/C=C/c2ccc(OC)c(OC)c2)CC1,> 0.0457
15,COc1ccccc1Nc1nc(-c2cccnc2)cs1,0.001
16,O=C(CCl)c1ccc2[nH]c(=O)oc2c1,> 0.0317
17,CCCCn1c2c(c(=N)c3ccccc31)CCC2.I,> 0.0552
18,O=C(Nc1ccccc1N1CCOCC1)c1ccco1,0.035
19,Cc1ccsc1C(=O)OCC(=O)N1CCc2ccccc2C1,0.0346
20,CCOc1cccc(/C=C(\C#N)C(=O)NC2CC2)c1,0.0272
21,Cc1cc2nc(C(C)(C)C)cc(N)n2n1,> 0.0306
22,Cc1c(Cl)cccc1NC(=O)CS(=O)(=O)c1ccccc1,0.0303
23,N#Cc1cccc(NC(=O)CCN2C(=O)C3CCCCC3C2=O)c1 (centres undefined),> 0.0488
